The results in this text go back to US20130230486A1, “COMPOSITIONS AND METHODS TO INDUCE TARGETED APOPTOSIS” (priority 2010, published 2013).

Data set [1] concerns PTPN13. The experiment in a line: PTPN13 mRNA expression by quantitative PCR in lung fibroblasts. Format: cell-based, human. The settings on record: NHLF, FHLF and MRC5, IFN-γ 50 U/ml, 6 hours. On the procedure: (§1) To assess the effects of these cytokines on PTPN13 expression, non-diseased normal human lung fibroblasts (NHLF), fibrotic human lung fibroblasts (FHLF) and a fetal lung fibroblast cell line, MRC5 cells, were treated with TNF-α (10/ng/ml), IFN-γ (50 U/ml) or with both cytokines for 6 hours. PTPN13 expression was measured by quantitative PCR (FIG. 2A). The primary lung fibroblasts from normal and fibrotic lung had equivalent levels of PTPN13 expression to the MRC5 lung fibroblast cell line. […] Treatment with TNF-α alone caused a 40% decrease in PTPN13 expression. Combined exposure to TNF-α and IFN-γ decreased PTPN13 mRNA expression by 80%. Protein lysates from normal, fibrotic and MRC5 fibroblasts treated for 36 hours with TNF-α (10/ng/ml), IFN-γ (50 U/ml) or with both cytokines were then analyzed for PTPN13 expression. […]
FIG. 2: TNF-α and IFN-γ decrease PTPN13 expression. […] A. Top panel is a quantitative RT-PCR analysis of PTPN13 mRNA lower panel is a Western blot analysis for PTPN13 protein.B. Time course of PTPN13 mRNA expression following TNF-a (10 ng/ml) and IFN-g (50 U/ml) treatment. […] Caspase-8 was measured using a fluorescence based assay.
Total RNA was obtained from 1×10^6 MRC5 cells using the Qiagen RNA Miniprep Kit (Qiagen) following the manufacturer's instructions. […] The fluorescence values of the threshold cycles were collected and normalized to GAPDH. […]

The test system of data set [2] is PTPN13. The experiment in a line: PTPN13 protein expression by Western blot in lung fibroblasts. Format: cell-based, human. The settings on record: normal, fibrotic and MRC5 fibroblasts; TNF-α 10 ng/ml, IFN-γ 50 U/ml; 36 hours. On the procedure: as §1
In one exemplary method, to assess whether PTPN13 expression prevents Fas-induced apoptosis, PTPN13 expression was knocked-down using siRNA. […] Apoptosis was assayed by quantifying activation of caspase-3 and caspase-8 (FIG. 3C).
FIG. 3: Decreased PTPN13 expression sensitizes fibroblasts to Fas-induced apoptosis. […] PTPN13 expression was quantified by western blot analysis and densitometry was performed. […] Fas activating antibody (250 ng/ml) (Fas activating antibody) or PBS (unstimulated) was added for 2 hours before analyzing Caspase-8 activation by a fluorescence-based assay. c. […]
On the technique in general: A western blot detects proteins with antibodies after separation by electrophoresis.

Data set [3] has as its system murine model of fibrosis. Nature of the data set: Bleomycin murine model of fibrosis, mortality. Format: in vivo, mouse. The settings on record: 2.5 U/kg bleomycin into the trachea. On the procedure:
To assess the effect of PTPN13 on development of fibrosis in vivo, we used a murine model of fibrosis in a PTPN13-/- mouse. The PTPN13-/- mouse has been characterized by Grusby to have abnormal STAT4 signaling which leads to augmented skewing toward TH1 or TH2 phenotypes. 2.5 U/kg bleomycin was administered directly into the tracheas of PTPN13-/- mice along with wildtype controls. […] Due to drastic weight decreases in the wildtype mice, two weeks was chosen as the end time point. […] Of the 20 wildtype mice treated with bleomycin, 11 (55%) died before two weeks as compared to the PTPN13-/- mice where three of the 20 (15%) died. Saline had no effect on mortality. Then static compliance was measured. The saline treated wildtype and PTPN13-/- mice had similar values of static compliance. […] Collagen content was measured in the lung using a hydroxyproline assay. […] To determine a possible cause for the decreased static compliance in the PTPN13-/- mice, we also measured other markers of lung disease, such as cellular infiltration and capillary leak. We measured the cellularity of the bronchoalveolar fluid (BALF). […] Capillary leak was determined by albumin present in the BALF (FIG. 6F). […] To validate these findings, stereology was performed on lung sections to quantify presence of collagen and diseased areas. […] Percentage of diseased lung was also measured by stereology. […]

For “IFN-γ: Recombinant human IFN-γ purchased from R&D Systems”, in data set [1], the “PTPN13 mRNA expression compared to untreated cells (in words)” value is “minimal decrease”. In addition, in data set [2], the “PTPN13 protein expression (Western blot)” value is “not decreased”.

On to TNF-α, for which the “decrease in PTPN13 mRNA expression” value in data set [1] (TNF-α 10 ng/ml, compared to untreated cells) was 40%. Moreover, the “PTPN13 protein expression (Western blot)” value in data set [2] was “decreased”.

For the substance bleomycin, the “mice that died before two weeks” value in data set [3] (PTPN13-/- mice, three of 20) is recorded as 15%; in data set [3] (wildtype mice, 11 of 20) it was 55%.
